Assay results published in the NIST ThermoML archive (doi:10.1021/je700072a).
Numbers after ± are expanded uncertainties.

What was measured:
[1] = Crystal; visual observation
[2] = molar heat capacity at constant pressure; conditions: 101.33 kPa, Crystal

NC[C@H]1CC[C@H](C(=O)O)CC1 [trans-4-(aminomethyl)cyclohexanecarboxylic acid]
Normal melting temperature [1]: 249.00 ± 4 °C | molar heat capacity at constant pressure ([2]; 82.12 K): 74.7 ± 1.5 J/K/mol | molar heat capacity at constant pressure ([2]; 86.25 K): 76.89 ± 1.5 J/K/mol | molar heat capacity at constant pressure ([2]; 90.28 K): 79.76 ± 1.6 J/K/mol | molar heat capacity at constant pressure ([2]; 94.31 K): 82.4 ± 1.6 J/K/mol | molar heat capacity at constant pressure ([2]; 98.35 K): 85 ± 1.7 J/K/mol | molar heat capacity at constant pressure ([2]; 102.41 K): 87.81 ± 1.7 J/K/mol | molar heat capacity at constant pressure ([2]; 106.49 K): 90.49 ± 1.7 J/K/mol | molar heat capacity at constant pressure ([2]; 110.6 K): 93.05 ± 1.8 J/K/mol | molar heat capacity at constant pressure ([2]; 114.62 K): 95.54 ± 1.8 J/K/mol | molar heat capacity at constant pressure ([2]; 118.68 K): 98.24 ± 1.8 J/K/mol | molar heat capacity at constant pressure ([2]; 122.78 K): 100.67 ± 1.9 J/K/mol | molar heat capacity at constant pressure ([2]; 126.81 K): 103.29 ± 1.9 J/K/mol | molar heat capacity at constant pressure ([2]; 130.9 K): 105.64 ± 1.9 J/K/mol | molar heat capacity at constant pressure ([2]; 135.04 K): 107.88 ± 2 J/K/mol | molar heat capacity at constant pressure ([2]; 139.12 K): 109.84 ± 2 J/K/mol | molar heat capacity at constant pressure ([2]; 143.27 K): 111.62 ± 2 J/K/mol | molar heat capacity at constant pressure ([2]; 147.47 K): 113.47 ± 2 J/K/mol | molar heat capacity at constant pressure ([2]; 151.62 K): 115.25 ± 2 J/K/mol | molar heat capacity at constant pressure ([2]; 155.73 K): 116.97 ± 2.1 J/K/mol | molar heat capacity at constant pressure ([2]; 159.91 K): 118.97 ± 2.1 J/K/mol | molar heat capacity at constant pressure ([2]; 164.15 K): 120.5 ± 2.1 J/K/mol | molar heat capacity at constant pressure ([2]; 168.36 K): 122.02 ± 2.1 J/K/mol | molar heat capacity at constant pressure ([2]; 172.53 K): 123.18 ± 2.1 J/K/mol | molar heat capacity at constant pressure ([2]; 176.78 K): 124.4 ± 2.2 J/K/mol | molar heat capacity at constant pressure ([2]; 181.09 K): 125.84 ± 2.2 J/K/mol | molar heat capacity at constant pressure ([2]; 185.38 K): 127.19 ± 2.2 J/K/mol | molar heat capacity at constant pressure ([2]; 189.63 K): 128.43 ± 2.2 J/K/mol | molar heat capacity at constant pressure ([2]; 193.83 K): 129.9 ± 2.2 J/K/mol | molar heat capacity at constant pressure ([2]; 198.09 K): 130.84 ± 2.2 J/K/mol | molar heat capacity at constant pressure ([2]; 202.43 K): 132.24 ± 2.3 J/K/mol | molar heat capacity at constant pressure ([2]; 206.76 K): 133.38 ± 2.3 J/K/mol | molar heat capacity at constant pressure ([2]; 211.06 K): 134.92 ± 2.3 J/K/mol | molar heat capacity at constant pressure ([2]; 215.33 K): 136.11 ± 2.3 J/K/mol | molar heat capacity at constant pressure ([2]; 219.57 K): 138 ± 2.3 J/K/mol | molar heat capacity at constant pressure ([2]; 223.88 K): 139.22 ± 2.4 J/K/mol | molar heat capacity at constant pressure ([2]; 228.26 K): 141.19 ± 2.4 J/K/mol | molar heat capacity at constant pressure ([2]; 232.59 K): 143.17 ± 2.4 J/K/mol | molar heat capacity at constant pressure ([2]; 236.84 K): 145.38 ± 2.4 J/K/mol | molar heat capacity at constant pressure ([2]; 240.99 K): 147.84 ± 2.5 J/K/mol | molar heat capacity at constant pressure ([2]; 245.16 K): 149.97 ± 2.5 J/K/mol | molar heat capacity at constant pressure ([2]; 249.36 K): 153.29 ± 2.5 J/K/mol | molar heat capacity at constant pressure ([2]; 253.5 K): 156.23 ± 2.6 J/K/mol | molar heat capacity at constant pressure ([2]; 257.64 K): 159.56 ± 2.6 J/K/mol | molar heat capacity at constant pressure ([2]; 261.72 K): 162.66 ± 2.6 J/K/mol | molar heat capacity at constant pressure ([2]; 265.9 K): 166 ± 2.7 J/K/mol | molar heat capacity at constant pressure ([2]; 270.14 K): 168.94 ± 2.7 J/K/mol | molar heat capacity at constant pressure ([2]; 274.32 K): 172.81 ± 2.8 J/K/mol | molar heat capacity at constant pressure ([2]; 278.44 K): 176.02 ± 2.8 J/K/mol | molar heat capacity at constant pressure ([2]; 282.51 K): 180.3 ± 2.9 J/K/mol | molar heat capacity at constant pressure ([2]; 286.62 K): 184.12 ± 2.9 J/K/mol | molar heat capacity at constant pressure ([2]; 290.75 K): 187.46 ± 2.9 J/K/mol | molar heat capacity at constant pressure ([2]; 294.85 K): 190.4 ± 3 J/K/mol | molar heat capacity at constant pressure ([2]; 298.94 K): 194.15 ± 3 J/K/mol | molar heat capacity at constant pressure ([2]; 303.01 K): 197.05 ± 3.1 J/K/mol | molar heat capacity at constant pressure ([2]; 307.17 K): 200.02 ± 3.1 J/K/mol | molar heat capacity at constant pressure ([2]; 311.37 K): 202.88 ± 3.1 J/K/mol | molar heat capacity at constant pressure ([2]; 315.53 K): 205.54 ± 3.2 J/K/mol | molar heat capacity at constant pressure ([2]; 319.67 K): 209.32 ± 3.2 J/K/mol | molar heat capacity at constant pressure ([2]; 323.79 K): 212.66 ± 3.3 J/K/mol | molar heat capacity at constant pressure ([2]; 327.88 K): 215.68 ± 3.3 J/K/mol | molar heat capacity at constant pressure ([2]; 331.96 K): 219.46 ± 3.3 J/K/mol | molar heat capacity at constant pressure ([2]; 336.09 K): 222.93 ± 3.4 J/K/mol | molar heat capacity at constant pressure ([2]; 340.27 K): 226.39 ± 3.4 J/K/mol | molar heat capacity at constant pressure ([2]; 344.44 K): 229.61 ± 3.5 J/K/mol | molar heat capacity at constant pressure ([2]; 348.6 K): 233.13 ± 3.5 J/K/mol | molar heat capacity at constant pressure ([2]; 352.73 K): 236.69 ± 3.5 J/K/mol | molar heat capacity at constant pressure ([2]; 356.85 K): 239.65 ± 3.6 J/K/mol | molar heat capacity at constant pressure ([2]; 360.96 K): 242.26 ± 3.6 J/K/mol | molar heat capacity at constant pressure ([2]; 365.13 K): 245.3 ± 3.7 J/K/mol | molar heat capacity at constant pressure ([2]; 369.37 K): 248.57 ± 3.7 J/K/mol | molar heat capacity at constant pressure ([2]; 373.63 K): 252.41 ± 3.8 J/K/mol | molar heat capacity at constant pressure ([2]; 377.94 K): 254.98 ± 3.8 J/K/mol
